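How tested: cells in 96-well plates exposed to compound for 48 hours at five concentrations. Here, GI50 denotes the concentration required for 50% inhibition of growth.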 The source made the active and inactive calls. No stated cut-off is given here; in the data, active = GI50 up to about 1.1 µM and inactive = higher. Bounds are passed on as bounds.

Among the test systems are 786-0; DU-145; HCC 2998; Hs-578T; IGROV-1; K562; MDA-MB-231; MOLT-4; NCI-H460; NCI-H522; NCI/ADR-RES; OVCAR-5; PC-3; RPMI-8226; SF-295; SF-539; SNB-75; SW-620; UACC-257; UACC-62.
Test in all cases: growth of human tumour cells (NCI), 48 h

As to `CCN(CC)C(=S)SNCc1ccc(S(N)(=O)=O)cc1`, the GI50 was 14.3 µM (inactive) with 786-0; 15.5 µM (inactive) in the test on DU-145; 36 µM (inactive) with HCC 2998; 19.8 µM (inactive) in the test with Hs-578T; 13.1 µM (inactive) in the test on IGROV-1; > 100 µM (inactive) with K562. Moreover, the GI50 with MDA-MB-231 was 18.1 µM (inactive); in the test on MOLT-4, 8.97 µM (inactive); in the test on NCI-H460 it was 1.34 µM (inactive); in the test on NCI-H522 it was 0.0191 µM (active); with NCI/ADR-RES, 18.9 µM (inactive); in the test on OVCAR-5, 14 µM (inactive). For the same compound, the GI50 is 13.1 µM (inactive) with PC-3; 2.93 µM (inactive) in the test with RPMI-8226; 9.06 µM (inactive) in the test with SF-295; 14.5 µM (inactive) in the test on SF-539; 18.5 µM (inactive) in the test with SNB-75; 20 µM (inactive) in the test on SW-620. Also, the GI50 was 17.1 µM (inactive) with UACC-257 and 24.9 µM (inactive) in the test with UACC-62.
Turning to `COc1cc(/C=C2/C(=O)N(C(=O)c3ccccc3O)N=C2C)cc(OC)c1OC`, the GI50 was 2.25 µM (inactive) in the test on 786-0; 2.44 µM (inactive) in the test on DU-145; 11.6 µM (inactive) in the test on HCC 2998; 0.822 µM (active) in the test with Hs-578T; 0.69 µM (active) in the test with IGROV-1; 0.393 µM (active) in the test on K562. Further, the GI50 in the test with MDA-MB-231 was 23.5 µM (inactive); in the test with MOLT-4, 0.887 µM (active); in the test with NCI-H460, 1.43 µM (inactive); in the test with NCI-H522, 3.83 µM (inactive); in the test on NCI/ADR-RES, 4.29 µM (inactive); in the test with OVCAR-5, 11.7 µM (inactive). For the same compound, the GI50 is 6.93 µM (inactive) with PC-3; > 22.2 µM (inactive) with RPMI-8226; 1.16 µM (inactive) in the test with SF-295; 0.839 µM (active) with SF-539; 1.84 µM (inactive) in the test on SNB-75; 6.22 µM (inactive) in the test with SW-620. In addition, the GI50 was 4.9 µM (inactive) in the test on UACC-257 and 0.405 µM (active) in the test with UACC-62.
With `COc1ccc(/C=N/n2c(Cc3ccccc3)n[nH]c2=O)c(OC)c1`, the GI50 was 31 µM (inactive) with 786-0; > 100 µM (inactive) in the test on DU-145; > 77.4 µM (inactive) in the test on HCC 2998; 11.2 µM (inactive) in the test on Hs-578T; 28.8 µM (inactive) in the test on IGROV-1; > 100 µM (inactive) with K562. Further, the GI50 in the test with MDA-MB-231 was 36.7 µM (inactive); in the test with MOLT-4, > 100 µM (inactive); in the test on NCI-H460 it was > 50.7 µM (inactive); with NCI-H522, > 52 µM (inactive); with NCI/ADR-RES it was 21.5 µM (inactive); in the test on OVCAR-5 it was 49.1 µM (inactive). Moreover, the GI50 in the test on PC-3 was > 100 µM (inactive); in the test on RPMI-8226, > 100 µM (inactive); in the test on SF-295 it was 15.3 µM (inactive); in the test with SF-539, 28.8 µM (inactive); in the test with SNB-75, 9.71 µM (inactive); in the test with SW-620, > 85.9 µM (inactive). Moreover, the results for the GI50 with UACC-257 and with UACC-62 were > 100 µM (inactive) and > 88.3 µM (inactive), respectively.
As to `NC(=S)NN=C1Cc2ccccc2C1`, the GI50 with 786-0, with DU-145, in the test with HCC 2998, in the test on Hs-578T, in the test on IGROV-1 and with K562 was > 100 µM (inactive) in each case. Further, the GI50 in the test on MDA-MB-231, in the test on MOLT-4, in the test with NCI-H460, with NCI-H522, in the test on NCI/ADR-RES and with OVCAR-5 was > 100 µM (inactive) throughout. Further, the GI50 in the test on PC-3, in the test on RPMI-8226, in the test with SF-295, with SF-539, in the test on SNB-75 and with SW-620 was > 100 µM (inactive) each time. Further, the GI50 in the test with UACC-257 and with UACC-62 was > 100 µM (inactive) in each case.
For `CC1(C)C2CCC(=O)C1C(OCc1ccccc1)C2` (stereo not given), the GI50 was > 100 µM (inactive) in the test on 786-0; > 100 µM (inactive) with DU-145; > 100 µM (inactive) in the test with HCC 2998; > 100 µM (inactive) in the test with Hs-578T; > 100 µM (inactive) in the test with IGROV-1; 96.4 µM (inactive) in the test with K562. For the same compound, the GI50 in the test with MDA-MB-231, in the test with MOLT-4, with NCI-H460, in the test with NCI-H522, in the test on NCI/ADR-RES and in the test on OVCAR-5 was > 100 µM (inactive) each time. Also, the GI50 with PC-3, in the test with RPMI-8226, in the test on SF-295, in the test on SF-539, with SNB-75 and in the test with SW-620 was > 100 µM (inactive) in each case. Besides, the GI50 in the test on UACC-257 was 85.7 µM (inactive); in the test on UACC-62, > 100 µM (inactive).
Turning to `NC(=O)C[C@H](NC(=O)C1(NC(=O)[C@H](Cc2ccc(CP(=O)(O)O)cc2)NC(=O)C(=O)O)CCCCC1)C(=O)NCCCc1cccc2ccccc12`, the GI50 in the test with 786-0, in the test on DU-145, with HCC 2998, in the test on Hs-578T, in the test with IGROV-1 and with K562 was > 10 µM (inactive) throughout. For the same compound, the GI50 in the test on MDA-MB-231, with MOLT-4, in the test with NCI-H460, in the test with NCI-H522, with NCI/ADR-RES and in the test on OVCAR-5 was > 10 µM (inactive) each time. Further, the GI50 in the test on PC-3, in the test with RPMI-8226, in the test with SF-295, in the test with SF-539, in the test on SNB-75 and with SW-620 was > 10 µM (inactive) in each case. For the same compound, the GI50 with UACC-257 and in the test with UACC-62 was > 10 µM (inactive) throughout.
In the case of `Cc1cccc2c(N)c3cccc(C(=O)NCC[N+](C)(C)Cc4ccc([N+](=O)[O-])s4)c3nc12`, the GI50 is 1.98 µM (inactive) with 786-0; 9.1 µM (inactive) in the test with DU-145; 11.1 µM (inactive) with HCC 2998; 8.51 µM (inactive) with Hs-578T; 2.85 µM (inactive) with IGROV-1; 2.88 µM (inactive) in the test on K562. Further, the GI50 with MDA-MB-231 is 4.42 µM (inactive); in the test with MOLT-4, 0.472 µM (active); with NCI-H460, 1.57 µM (inactive); in the test on NCI-H522, 5.28 µM (inactive); with NCI/ADR-RES, 43.8 µM (inactive); in the test with OVCAR-5 it was 11.9 µM (inactive). Moreover, the GI50 was 7 µM (inactive) in the test with PC-3; 2.62 µM (inactive) with RPMI-8226; 9.64 µM (inactive) in the test with SF-295; 4.93 µM (inactive) with SF-539; 17.2 µM (inactive) in the test with SNB-75; 5.4 µM (inactive) in the test on SW-620. Moreover, the GI50 was 23.7 µM (inactive) with UACC-257 and 16.5 µM (inactive) in the test with UACC-62.
With `O=Cc1ccc(-c2cc(C=O)c(-c3cccs3)[nH]2)s1`, the GI50 with 786-0 is 48.4 µM (inactive); in the test with DU-145, 42.6 µM (inactive); in the test on HCC 2998, 16.6 µM (inactive); in the test with Hs-578T, 23.4 µM (inactive); in the test with IGROV-1, 15.7 µM (inactive); with K562, 25.9 µM (inactive). Further, the GI50 is 29.6 µM (inactive) in the test on MDA-MB-231; 20.2 µM (inactive) in the test with MOLT-4; 25.8 µM (inactive) with NCI-H460; 10.3 µM (inactive) in the test with NCI-H522; 26.7 µM (inactive) with NCI/ADR-RES; > 75 µM (inactive) in the test with OVCAR-5. Further, the GI50 was 35.6 µM (inactive) in the test on PC-3; 53.2 µM (inactive) in the test on RPMI-8226; 21.8 µM (inactive) in the test with SF-295; 24.4 µM (inactive) in the test with SF-539; 17.1 µM (inactive) in the test with SNB-75; > 75 µM (inactive) with SW-620. The results for the GI50 with UACC-257 and in the test with UACC-62 were 48 µM (inactive) and 27.5 µM (inactive), respectively.
For `COC1OC(=O)C(OC)C(OC)C1OC` (stereo not given), the GI50 with 786-0, with DU-145, in the test on HCC 2998, with Hs-578T, in the test on IGROV-1 and with K562 was > 100 µM (inactive) each time. Further, the GI50 with MDA-MB-231, with MOLT-4, in the test on NCI-H460, in the test with NCI-H522, with NCI/ADR-RES and with OVCAR-5 was > 100 µM (inactive) each time. Besides, the GI50 in the test with PC-3, in the test with RPMI-8226, in the test with SF-295, in the test on SF-539, with SNB-75 and with SW-620 was > 100 µM (inactive) in each case. The GI50 in the test with UACC-257 and in the test with UACC-62 was > 100 µM (inactive) throughout.
